The target in this test is T1, HIV-1 protease (Human immunodeficiency virus type 1 group M subtype B, UniProt P04585).
T1 construct: The protease (or proteinase) enzyme, consisting of only 99 amino acids
Nature of the test: In vitro HIV protease inhibitory assay (fluorescently labeled substrate, avidin-polystyrene particles). It is filed as biochemical. The following applies: for inhibition at 1.1 µM: HIV-1 dose 1.1 μM; for inhibition at 10 µM: HIV-1 dose 10.0 μM; for inhibition at 30 µM: HIV-1 dose 30.0 μM; for inhibition at 1 µM: HIV-1 dose 1.0 μM; for inhibition at 100 µM: HIV-1 dose 100.0 μM; for inhibition at 3.3 µM: HIV-1 dose 3.3 μM. An outline of the steps: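 Biotinylated, FITC-labelled peptide substrate cleaved by HIV-1 protease for 1 h at room temperature in the dark, in 0.1 M sodium acetate pH 5.5 with 1.0 M NaCl and 0.05% NP-40. Product separated from substrate with avidin-polystyrene beads and filtration; fluorescence read as percent inhibition at stated compound concentrations.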

Turning to `O=C1OC2(CCCCCCC2)C(O)=C1C(c1ccccc1)C1CC1` (stereo not drawn) [CX-2, 1-Oxaspiro[4.7]dodec-3-en-2-one, 3-(cyclopropylphenylmethyl)-4-hydroxy-], the inhibition at 1.1 µM stood at 96%, the inhibition at 10 µM came to 104% and the inhibition at 30 µM was found to be 110%.

Turning to `O=C1OC(CCCc2ccccc2)C(O)=C1C(c1ccccc1)C1CC1` (stereo not drawn) [BX-3, 2(5H)-Furanone, 3-(cyclopropylphenylmethyl)-4-hydroxy-5-(3-phenylpropyl)-], the inhibition at 1 µM was 46%, the inhibition at 10 µM turned out to be 90.6% and the inhibition at 100 µM was determined as 93.2%.

Regarding `O=C1OC2(CCCCC2CCc2ccccc2)C(O)=C1C(c1ccccc1)C1CC1` (stereo not drawn) [IX-5, 1-Oxaspiro[4.5]dec-3-en-2-one, 3-(cyclo-propylphenylmethyl)-4-hydroxy--6-(2-phenylethyl)-], the “HIV-1 Protease % Inhibition” value (test compound concentration 3.3 μM) amounted to 91.93%, the “HIV-1 Protease % Inhibition” value (test compound concentration 10.0 μM) amounted to 95.68% and the “HIV-1 Protease % Inhibition” value (test compound concentration 30.0 μM) was 92.9%.

Consider `CCCC1(CCC)OC(=O)C(C(c2cccc(NS(=O)(=O)c3ccc(C#N)cc3)c2)C2CCCC2)=C1O` (stereo not drawn) [IX-41], for which the inhibition at 3.3 µM was determined as 97.4%, the inhibition at 10 µM is 96.9% and the inhibition at 30 µM was 101%.

Take `CC1(CCCc2ccccc2)OC(=O)C(C(c2ccccc2)C2CC2)=C1O` (stereo not drawn) [DX-10, 2(5H)-Furanone, 3-(cyclopropylphenylmethyl)-4-hydroxy-5-methyl-5-(3-phenyl-propyl)-]: the inhibition at 3.3 µM came to 112%, the inhibition at 10 µM was found to be 104% and the inhibition at 30 µM was 91.5%.

Regarding `CC1(CCc2ccccc2)OC(=O)C(C(c2ccccc2)C2CC2)=C1O` (stereo not drawn) [CX-3, 2(5H)-Furanone, 3-(cyclopropylphenylmethyl)-4-hydroxy-5-methyl-5-(2--phenylethyl)-], the inhibition at 3.3 µM came out at 98.1%, the inhibition at 10 µM stood at 111% and the inhibition at 30 µM was 118%.

In the case of `Cn1cnc(S(=O)(=O)Nc2cccc(C(C3=C(O)C(Cc4ccccc4)(Cc4ccccc4)OC3=O)C3CC3)c2)c1` (stereo not drawn) [IX-45, 1H-Imidazole-4-sulfonamide, N-(3-(cyclopropyl-(5,5-dibenzyl-4-hydroxy-2-oxo-2,5-dihydro-3-furanyl)methyl)phenyl)-1-methyl-], the inhibition at 3.3 µM turned out to be 91.9%, the inhibition at 10 µM stood at 94.3% and the inhibition at 30 µM stood at 80.9%.

For `CCCC1(CCC)OC(=O)C(C(c2cccc(NS(=O)(=O)c3ccc(C#N)cc3)c2)C(C)(C)C)=C1O` (stereo not drawn) [IX-25, Benzenesulfonamide, 4-Cyano-N-(3-(1-(4-hydroxy-2-oxo-5,5-dipropyl-2,5-dihydro-furan-3-yl)-2,2-dimethyl-propyl)-phenyl)-], the inhibition at 3.3 µM was determined as 120%, the inhibition at 10 µM amounted to 120% and the inhibition at 30 µM is 117%.

On to `O=C1OC(Cc2ccccc2)C(O)=C1C(c1ccccc1)C1CC1` (stereo not drawn) [BX-1, 5H-Furan-2-one, 5-benzyl-3-cyclopropylphenylmethyl-4-hydroxy-], for which the inhibition at 1 µM came out at 18.7%, the inhibition at 10 µM came to 80.1% and the inhibition at 100 µM came out at 90.5%.

With `O=C1OC2(CCCCC2)C(O)=C1C(c1ccccc1)C1CC1` (stereo not drawn) [IX-3, 1-Oxaspiro[4.5]dec-3-en-2-one, 3-(cyclopropyl-phenylmethyl)-4-hydroxy-], the inhibition at 3.3 µM amounted to 102%, the inhibition at 10 µM amounted to 114% and the inhibition at 30 µM was 103%.

For the molecule `CCCCC(CCc1ccccc1)C1OC(=O)C(C(c2ccccc2)C2CC2)=C1O` (stereo not drawn) [GX-2, 2(5H)-Furanone, 3-(cyclopropylphenylmethyl)-4-hydroxy-5-(1-(2-phenyl-ethyl)pentyl)-], the inhibition at 3.3 µM was found to be 70.9%, the inhibition at 10 µM is 88.3% and the inhibition at 30 µM worked out at 74.9%.

`CC(C)CC1(CCCc2ccccc2)OC(=O)C(C(c2ccccc2)C2CC2)=C1O` (stereo not drawn) [DX-20, 2(5H)-Furanone, 3-(cyclopropylphenylmethy)-4-hydroxy-5-(2-methylpropyl)-5--(3-phenylpropyl)-]: the inhibition at 1.1 µM was 90.3%. Further, the inhibition at 0.12 µM (HIV-1 dose 0.12 μM) worked out at 29.2%. Further, the inhibition at 0.37 µM (HIV-1 dose 0.37 μM) amounted to 71.5%.

Turning to `O=C1OC(CCCc2ccccc2)C(O)=C1C(c1ccccc1)c1ccccc1` (stereo not drawn) [FX-2, 2(5H)-Furanone, 3-(diphenylmethyl)-4-hydroxy-5-(3-phenylpropyl)-], the inhibition at 3.3 µM was 41.5%, the inhibition at 10 µM came to 69% and the inhibition at 30 µM was determined as 77.3%.

`CCCC1(CCC)OC(=O)C(C(c2cccc(NS(=O)(=O)c3cccc4cccnc34)c2)C2CC2)=C1O` (stereo not drawn) [IX-18]: the inhibition at 3.3 µM was 102%, the inhibition at 10 µM came out at 125% and the inhibition at 30 µM is 106%.

`O=C1OC(CCc2ccccc2)C(O)=C1C(c1ccccc1)C1CC1` (stereo not drawn) [BX-2, 2(5H)-Furanone, 3(cyclopropylphenylmethyl)-4-hydroxy-5-(2-phenylethyl)-]: the inhibition at 1 µM amounted to 47.2%, the inhibition at 10 µM is 81% and the inhibition at 100 µM was 81.4%.

On to `CCCC1(CCC)OC(=O)C(C(c2cccc(NS(=O)(=O)c3cn(C)cn3)c2)C(C)(C)C)=C1O` (stereo not drawn) [IX-26, 1H-Imidazole-4-sulfonamide, N-(3-(1-(4-hydroxy-2-oxo-5,5-dipropyl-2,5-dihydro-furan-3-yl)-2,2-dimethyl-propyl)-phenyl)-1-methyl-], for which the inhibition at 3.3 µM was 110%, the inhibition at 10 µM came out at 116% and the inhibition at 30 µM is 105%.

On to `O=C1OC(CCc2ccccc2)(CCc2ccccc2)C(O)=C1C(c1ccccc1)C1CC1` (stereo not drawn) [DX-9, 2(5H)-Furanone, 3-(cyclopropylphenylmethyl)-4-hydroxy-5,5-bis(2-phenylethyl)-], for which the inhibition at 3.3 µM turned out to be 86.7%, the inhibition at 10 µM turned out to be 104% and the inhibition at 30 µM is 99.8%.

With `CCCC1(Cc2ccccc2)OC(=O)C(C(c2cccc(NS(=O)(=O)c3ccc(F)cc3)c2)C(C)C)=C1O` (stereo not drawn) [IX-29, Benzenesulfonamide, N-(3-(1-(2,5-dihydro-4-hydroxy-2-oxo-5-(phenylmethyl)-5-propyl-3-furanyl)-2-methylpropyl)phenyl)-4-fluoro-], the inhibition at 3.3 µM worked out at 94.9%, the inhibition at 10 µM came to 102% and the inhibition at 30 µM came out at 93.3%.

As to `CCC/C=C1\OC(=O)C(C(c2ccccc2)C2CC2)=C1O` (stereo not drawn) [JX-4, 5-Butylidene-3-(cyclopropyl-phenyl-methyl)-4-hydroxy-5H-furan-2-one], the inhibition at 3.3 µM was found to be 85.9%, the inhibition at 10 µM was 99.2% and the inhibition at 30 µM stood at 113%.

For the molecule `O=C1OC(=CCCc2ccccc2)C(O)=C1C(c1ccccc1)C1CC1` (stereo not drawn) [JX-1, 3-(Cyclopropyl-phenyl-methyl)-4-hydroxy-5-(3-phenyl-propyl-idene)-5H-furan-2-one], the inhibition at 3.3 µM worked out at 94.3%, the inhibition at 10 µM came out at 103% and the inhibition at 30 µM was 103%.

`N#Cc1ccc(S(=O)(=O)Nc2cccc(CC3=C(O)C(Cc4ccccc4)(Cc4ccccc4)OC3=O)c2)cc1` [IX-56]: the inhibition at 3.3 µM amounted to 81.9%, the inhibition at 10 µM worked out at 101% and the inhibition at 30 µM was determined as 92.5%.

As to `CCCCC(CC)C1OC(=O)C(C(c2ccccc2)C2CC2)=C1O` (stereo not drawn) [GX-5, 2(5H)-Furanone, 3-(cyclopropylphenylmethyl)-5-(1-ethylpentyl)-4-hydroxy-], the inhibition at 3.3 µM came to 94%, the inhibition at 10 µM worked out at 94.1% and the inhibition at 30 µM amounted to 99.2%.

In the case of `CCCC1(CCC)OC(=O)C(C(CC)c2cccc(NS(=O)(=O)c3ccccc3)c2)=C1O` (stereo not drawn) [IX-20, Benzenesulfonamide, N-(3-(1-(2,5-dihydro-4-hydroxy-2-oxo--5,5-dipropyl-3-furanyl)propyl)phenyl)-], the inhibition at 3.3 µM is 104%, the inhibition at 10 µM is 101% and the inhibition at 30 µM was found to be 91.8%.

In the case of `O=C1OC(CC=Cc2ccccc2)C(O)=C1C(c1ccccc1)C1CC1` (stereo not drawn) [BX-6, 2(5H)-Furanone, 3-(cyclopropylphenylmethyl)-4-hydroxy-5-(3-phenyl-2-propenyl)-], the inhibition at 3.3 µM was 65.7%, the inhibition at 10 µM stood at 77.2% and the inhibition at 30 µM stood at 82.1%.

For the molecule `CC(C)C1OC(=O)C(C(c2ccccc2)C2CC2)=C1O` (stereo not drawn) [BX-10, 2(5H)-Furanone, 3-(cyclopropylphenylmethyl)-4-hydroxy-5-(1-methylethyl)-], the inhibition at 3.3 µM came out at 40.5%, the inhibition at 10 µM was 74.6% and the inhibition at 30 µM worked out at 98.6%.

As to `CCCC1(CCC)OC(=O)C(C(c2cccc(NS(=O)(=O)c3ccc(C#N)cc3)c2)C(C)C)=C1O` (stereo not drawn) [IX-23, Benzenesulfonamide, 4-Cyano-N-(3-(1-(4-hydroxy-2-oxo-5,5-dipropyl-2,5-dihydro-furan-3-yl)-2-methyl-propyl)-phenyl)-], the inhibition at 3.3 µM was 109%, the inhibition at 10 µM was 101% and the inhibition at 30 µM came to 112%.

Take `CCC1(CC)OC(=O)C(C(c2ccccc2)C2CC2)=C1O` (stereo not drawn) [BX-14, 2(5H)-Furanone, 3-(cyclopropylphenymethyl)-5,5-diethyl-4-hydroxy-]: the inhibition at 3.3 µM worked out at 92.7%, the inhibition at 10 µM was found to be 94% and the inhibition at 30 µM came out at 99%.

As for `CCC1(Cc2ccccc2)OC(=O)C(C(c2ccccc2)C2CC2)=C1O` (stereo not drawn) [DX-3, 2(5H)-Furanone, 3-(cyclopropylphenylmethyl)-5-ethyl-4-hydroxy-5-(phenyl-methyl)-], the inhibition at 3.3 µM worked out at 95.5%, the inhibition at 10 µM amounted to 103% and the inhibition at 30 µM worked out at 105%.

The values are drawn from US5977169A, “Substituted tetronic acids useful for treating HIV and other retroviruses” (priority 1997, dated 1999).
